Data published in PubChem BioAssay (NCI).
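Assay format: 96-well plates, 48-hour exposure. TGI is the concentration that stops growth completely.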

Legend:
Test in all cases: growth of human tumour cells (NCI), 48 h
A498 renal = system: A498 renal
LOX IMVI melanoma = system: LOX IMVI melanoma
HCT-15 colon = system: HCT-15 colon
RPMI-8226 leukemia = system: RPMI-8226 leukemia
SK-MEL-28 melanoma = system: SK-MEL-28 melanoma
HL-60(TB) leukemia = system: HL-60(TB) leukemia
U251 CNS = system: U251 CNS
CCRF-CEM leukemia = system: CCRF-CEM leukemia
HS 578T breast = system: HS 578T breast
SR leukemia = system: SR leukemia
SNB-19 CNS = system: SNB-19 CNS
NCI/ADR-RES ovarian = system: NCI/ADR-RES ovarian
SK-MEL-2 melanoma = system: SK-MEL-2 melanoma
HCT-116 colon = system: HCT-116 colon
SN12C renal = system: SN12C renal
OVCAR-8 ovarian = system: OVCAR-8 ovarian
MDA-MB-435 = system: MDA-MB-435
MALME-3M melanoma = system: MALME-3M melanoma
MDA-MB-231 breast = system: MDA-MB-231 breast
OVCAR-4 ovarian = system: OVCAR-4 ovarian
MOLT-4 leukemia = system: MOLT-4 leukemia
SW-620 colon = system: SW-620 colon
ACHN renal = system: ACHN renal
NCI-H460 lung = system: NCI-H460 lung
HOP-62 NSCLC = system: HOP-62 NSCLC
HT29 colon = system: HT29 colon
SNB-75 CNS = system: SNB-75 CNS
SF-295 CNS = system: SF-295 CNS
TK-10 renal = system: TK-10 renal
BT-549 breast = system: BT-549 breast
SK-MEL-5 melanoma = system: SK-MEL-5 melanoma
UACC-62 melanoma = system: UACC-62 melanoma
OVCAR-5 ovarian = system: OVCAR-5 ovarian
PC-3 prostate = system: PC-3 prostate
SK-OV-3 ovarian = system: SK-OV-3 ovarian
KM12 colon = system: KM12 colon
SF-539 CNS = system: SF-539 CNS
EKVX NSCLC = system: EKVX NSCLC
UO-31 renal = system: UO-31 renal
M14 melanoma = system: M14 melanoma
DU-145 prostate = system: DU-145 prostate
HOP-92 NSCLC = system: HOP-92 NSCLC
A549 NSCLC = system: A549 NSCLC
OVCAR-3 ovarian = system: OVCAR-3 ovarian
CAKI-1 renal = system: CAKI-1 renal
MDA-N = system: MDA-N
SF-268 CNS = system: SF-268 CNS
786-0 renal = system: 786-0 renal
T-47D breast = system: T-47D breast
NCI-H226 lung = system: NCI-H226 lung
MCF7 breast = system: MCF7 breast
HCC-2998 colon = system: HCC-2998 colon
NCI-H23 lung = system: NCI-H23 lung
COLO 205 colon = system: COLO 205 colon
IGROV1 ovarian = system: IGROV1 ovarian
UACC-257 melanoma = system: UACC-257 melanoma
NCI-H522 lung = system: NCI-H522 lung
K-562 leukemia = system: K-562 leukemia

Structure (SMILES): Cc1ccc(S(=O)(=O)N(CC(O)COc2ccccc2)c2c(F)c(F)cc(F)c2F)cc1 (stereo unspecified)
- TGI (A498 renal): 39 µM
- TGI (LOX IMVI melanoma): 37.6 µM
- TGI (HCT-15 colon): 52 µM
- TGI (RPMI-8226 leukemia): 41.4 µM
- TGI (SK-MEL-28 melanoma): 36.8 µM
- TGI (HL-60(TB) leukemia): 19.7 µM
- TGI (U251 CNS): 48.8 µM
- TGI (CCRF-CEM leukemia): 93.6 µM
- TGI (HS 578T breast): 50.8 µM
- TGI (SR leukemia): 28.5 µM
- TGI (SNB-19 CNS): 82.1 µM
- TGI (NCI/ADR-RES ovarian): 42 µM
- TGI (SK-MEL-2 melanoma): 31.3 µM
- TGI (HCT-116 colon): > 100 µM
- TGI (SN12C renal): 49.9 µM
- TGI (OVCAR-8 ovarian): 49.7 µM
- TGI (MDA-MB-435): 36.5 µM
- TGI (MALME-3M melanoma): 64.1 µM
- TGI (MDA-MB-231 breast): 50.8 µM
- TGI (OVCAR-4 ovarian): 52 µM
- TGI (MOLT-4 leukemia): 2.25 µM
- TGI (SW-620 colon): 85 µM
- TGI (ACHN renal): 54.1 µM
- TGI (NCI-H460 lung): 35.3 µM
- TGI (HOP-62 NSCLC): 52.6 µM
- TGI (HT29 colon): 33.4 µM
- TGI (SNB-75 CNS): 42.6 µM
- TGI (SF-295 CNS): 62 µM
- TGI (TK-10 renal): 84.1 µM
- TGI (BT-549 breast): 48.7 µM
- TGI (SK-MEL-5 melanoma): 30.8 µM
- TGI (UACC-62 melanoma): 37.5 µM
- TGI (OVCAR-5 ovarian): 76.3 µM
- TGI (PC-3 prostate): 45 µM
- TGI (SK-OV-3 ovarian): 47.2 µM
- TGI (KM12 colon): 70.6 µM
- TGI (SF-539 CNS): 36 µM
- TGI (EKVX NSCLC): 92.3 µM
- TGI (UO-31 renal): 41.3 µM
- TGI (M14 melanoma): 61.5 µM
- TGI (DU-145 prostate): > 100 µM
- TGI (HOP-92 NSCLC): 34.2 µM
- TGI (A549 NSCLC): 72.8 µM
- TGI (OVCAR-3 ovarian): 54.1 µM
- TGI (CAKI-1 renal): 37.1 µM
- TGI (MDA-N): 35.7 µM
- TGI (SF-268 CNS): 38.2 µM
- TGI (786-0 renal): 58 µM
- TGI (T-47D breast): 78.3 µM
- TGI (NCI-H226 lung): 57.9 µM
- TGI (MCF7 breast): 32.7 µM
- TGI (HCC-2998 colon): 53.5 µM
- TGI (NCI-H23 lung): 43.2 µM
- TGI (COLO 205 colon): 29.1 µM

Structure (SMILES): Nc1n[n+]([O-])c2cc([N+](=O)[O-])ccc2[n+]1[O-]
- TGI (A498 renal): 36.6 µM
- TGI (LOX IMVI melanoma): > 100 µM
- TGI (HCT-15 colon): 13.6 µM
- TGI (RPMI-8226 leukemia): > 100 µM
- TGI (SK-MEL-28 melanoma): > 100 µM
- TGI (HL-60(TB) leukemia): 7.47 µM
- TGI (U251 CNS): 18.5 µM
- TGI (CCRF-CEM leukemia): 9.74 µM
- TGI (HS 578T breast): 44 µM
- TGI (SR leukemia): 18.4 µM
- TGI (SNB-19 CNS): 31.1 µM
- TGI (NCI/ADR-RES ovarian): 32.8 µM
- TGI (SK-MEL-2 melanoma): 36.3 µM
- TGI (HCT-116 colon): 16.5 µM
- TGI (SN12C renal): 18.1 µM
- TGI (OVCAR-8 ovarian): 20.5 µM
- TGI (IGROV1 ovarian): 13.2 µM
- TGI (MDA-MB-435): 3.26 µM
- TGI (MDA-MB-231 breast): 44.7 µM
- TGI (OVCAR-4 ovarian): 10.2 µM
- TGI (MOLT-4 leukemia): 4.16 µM
- TGI (SW-620 colon): > 100 µM
- TGI (ACHN renal): 14.4 µM
- TGI (NCI-H460 lung): 16.1 µM
- TGI (HOP-62 NSCLC): 22.3 µM
- TGI (HT29 colon): 10.1 µM
- TGI (SNB-75 CNS): 83.4 µM
- TGI (SF-295 CNS): 22.5 µM
- TGI (TK-10 renal): 86.1 µM
- TGI (BT-549 breast): 32 µM
- TGI (UACC-257 melanoma): 27.1 µM
- TGI (SK-MEL-5 melanoma): 20.6 µM
- TGI (UACC-62 melanoma): 9.84 µM
- TGI (OVCAR-5 ovarian): 42.2 µM
- TGI (PC-3 prostate): > 100 µM
- TGI (SK-OV-3 ovarian): 61.2 µM
- TGI (NCI-H522 lung): 4.25 µM
- TGI (SF-539 CNS): 16 µM
- TGI (UO-31 renal): 23.7 µM
- TGI (M14 melanoma): 20.4 µM
- TGI (DU-145 prostate): 31.7 µM
- TGI (A549 NSCLC): 44.6 µM
- TGI (OVCAR-3 ovarian): 15.2 µM
- TGI (K-562 leukemia): 11.7 µM
- TGI (CAKI-1 renal): 20.6 µM
- TGI (MDA-N): 4.93 µM
- TGI (786-0 renal): 17.3 µM
- TGI (T-47D breast): 18.6 µM
- TGI (NCI-H226 lung): 30.7 µM
- TGI (MCF7 breast): 11.7 µM
- TGI (NCI-H23 lung): 35.7 µM
- TGI (COLO 205 colon): 19 µM
